“Also recorded” adds a separate entry of the source. Counter-ions that a name gives are not always drawn.
What was measured:
[1] = system: ΔtlpC H. pylori PMSS1; assay: Swimming behaviour (direction change) chemotaxis assay, ΔtlpC mutant; type: cell-based, Helicobacter pylori
[2] = target: T1, TlpC LBD I218A (Helicobacter pylori, UniProt O24911, I218A); assay: ITC titration of TlpC LBD variant with lactate; type: binding
T1 sequence (O24911 34-297 I218A): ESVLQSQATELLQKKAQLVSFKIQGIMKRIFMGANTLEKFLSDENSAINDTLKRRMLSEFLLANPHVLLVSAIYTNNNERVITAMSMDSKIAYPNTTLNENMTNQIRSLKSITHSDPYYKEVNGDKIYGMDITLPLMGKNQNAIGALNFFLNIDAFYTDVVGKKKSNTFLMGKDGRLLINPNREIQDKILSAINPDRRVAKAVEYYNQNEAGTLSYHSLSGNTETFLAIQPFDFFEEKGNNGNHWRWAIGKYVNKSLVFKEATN
Experimental: (§1) The expression vectors for single-point variants of TlpC LBD in which S104, Y151, K153, N213, I218 or Y285 were replaced by alanine, and Y249 by phenylalanine, were prepared from a TlpC-expressing plasmid described previously. This plasmid expresses codon-optimised H. pylori 26695 TlpC LBD consisting of amino acid residues 34–297 (Fig. 1a). Mutants were created using the QuikChange Mutagenesis Kit (Stratagene). TlpC LBD and its variants were expressed and purified following the previously published procedure.
(§2) Measurements were performed on a MicroCal VP-ITC instrument microcalorimeter (MicroCal) at 25 °C. […] The data was fitted to a single-site binding model using non-linear least-squares regression (Origin 7, OriginLab, USA), yielding the binding enthalpy ∆H, dissociation constant K D, and binding entropy […]. Each experiment was repeated three times.

[3] = target: T2, TlpC LBD N213A (Helicobacter pylori, UniProt O24911, N213A); assay: ITC titration of TlpC LBD variant with lactate; type: binding
T2 sequence (O24911 34-297 N213A): T1 sequence (O24911 34-297 I218A)
Experimental: as §1, §2

[4] = target: T3, TlpC LBD Y151A (Helicobacter pylori, UniProt O24911, Y151A); assay: ITC titration of TlpC LBD variant with lactate; type: binding
T3 sequence (O24911 34-297 Y151A): T1 sequence (O24911 34-297 I218A)
Experimental: as §1, §2

[5] = target: T4, TlpC LBD S104A (Helicobacter pylori, UniProt O24911, S104A); assay: ITC titration of TlpC LBD variant with lactate; type: binding
T4 sequence (O24911 34-297 S104A): T1 sequence (O24911 34-297 I218A)
Experimental: as §1, §2

[6] = target: T5, TlpC LBD K153A (Helicobacter pylori, UniProt O24911, K153A); assay: ITC titration of TlpC LBD variant with lactate; type: binding
T5 sequence (O24911 34-297 K153A): T1 sequence (O24911 34-297 I218A)
Experimental: as §1, §2

[7] = target: TlpC LBD native (Helicobacter pylori, UniProt O24911); assay: ITC titration of TlpC LBD with ligand; type: binding; conditions: for heat release or absorption on titration (binding): 5 mM ligand into 10 µM protein
Experimental: as §1, §2

[8] = target: T6, TlpC LBD (Helicobacter pylori, UniProt O24911); assay: ITC titration of TlpC LBD variant with lactate; type: binding; conditions: text prints Y285A substitution
T6 sequence (O24911 34-297 Y285F): T1 sequence (O24911 34-297 I218A)

[9] = system: wild-type H. pylori PMSS1; assay: Swimming behaviour (direction change) chemotaxis assay, wild type; type: cell-based, Helicobacter pylori
[10] = system: H. pylori; conditions: cited from earlier work
[11] = target: McpP; design: method as in PMID 26048936; conditions: P. aeruginosa sCACHE receptor McpP; cited from earlier work

CC(O)C(=O)O (centres unmarked) [lactate]
chemotactic response to lactate ([1]; all tested concentrations (0.1, 1, 10 mM)): abolished the chemotactic response; also recorded: drastically reduced
Enthalpy, ∆H [2]: −18,145.0 ± 49.0 cal/mol
Entropy, ∆S [2]: −49.4 ± 0.2 cal/mol/degree
effect of substitution on lactate binding [3]: abolished the binding
Enthalpy, ∆H [4]: −12,040 ± 250.2 cal/mol
Entropy, ∆S [4]: −24.1 ± 1.0 cal/mol/degree
Enthalpy, ∆H [5]: −13,105 ± 318.0 cal/mol
Entropy, ∆S [5]: −28.2 ± 1.0 cal/mol/degree
Enthalpy, ∆H [6]: −12,730 ± 345.0 cal/mol
Entropy, ∆S [6]: −27.5 ± 1.0 cal/mol/degree
Enthalpy, ∆H ([7]; native TlpC LBD): −21,323.3 ± 713.0 cal/mol
Entropy, ∆S ([7]; native TlpC LBD): −54.1 ± 2.0 cal/mol/degree
effect of substitution on lactate binding [8]: abolished the binding
chemotactic (attractant) response, direction changes in 3 s ([9]; 0.1 mM lactate): significant response; also recorded: strongest
chemotactic (attractant) response, direction changes in 3 s ([9]; 1.0 mM lactate): detectable
chemotactic (attractant) response, direction changes in 3 s ([9]; 10 mM lactate): not detectable; also recorded: did not elicit a positive chemotactic response
chemotactic (attractant) response, direction changes in 3 s ([9]; concentrations higher than 0.1 mM): lost the response
optimal concentration at which lactate is sensed as attractant ([9]; order of magnitude, tested 0.1-10 mM): 0.1 mM
concentration with inhibitory effect on H. pylori growth [10]: ≥ 10 mM
inhibitory effect on H. pylori viability among tested SCFA ([10]; short chain fatty acids secreted by LAB): strongest inhibitory effect
Kd [11]: 107 µM

c1ccc(-c2ccccn2)nc1 [dipyridyl]
chemotaxis response (attractant) ([1]; 50 μM dipyridyl): retained chemotaxis responses

O=C(O)CC(O)C(=O)O (centres unmarked) [malate]
heat release or absorption on titration (binding) [7]: no significant heat release or absorption

CC(=O)C(=O)O [pyruvate]
heat release or absorption on titration (binding) [7]: no significant heat release or absorption
binding to McpP [11]: binds

O=C(O)CC(=O)C(=O)O [oxaloacetate]
heat release or absorption on titration (binding) [7]: no significant heat release or absorption

CCC(=O)O [propionate]
binding to McpP [11]: binds

CC(=O)O [acetate]
binding to McpP [11]: binds

Cl [HCl]
chemotaxis response (repellent) ([1]; 10 mM HCl): retained chemotaxis responses

Source: publication PMC5658362 (Scientific Reports, 2017)
